For one test, the target named is Human PKC delta (Homo sapiens, UniProt Q05655). In words: In vitro PKC inhibition, PKC delta. In kind it is biochemical. The source says:
(§1) The methods for these determinations have been described (Grant, et al. 2010, Eur. J. Pharmacol. 627:16-25).

Another test concerns pSHP2 (PKCβ cell assay). The test can be described thus: pSHP2 (PKCβ cell assay). It counts as cell-based.
Description: as §1

A further test has as its system Interleukin-8 release. In words: Interleukin-8 release. In kind it is cell-based.
Description: as §1

Sequence of Human PKC delta (Q05655 whole entry): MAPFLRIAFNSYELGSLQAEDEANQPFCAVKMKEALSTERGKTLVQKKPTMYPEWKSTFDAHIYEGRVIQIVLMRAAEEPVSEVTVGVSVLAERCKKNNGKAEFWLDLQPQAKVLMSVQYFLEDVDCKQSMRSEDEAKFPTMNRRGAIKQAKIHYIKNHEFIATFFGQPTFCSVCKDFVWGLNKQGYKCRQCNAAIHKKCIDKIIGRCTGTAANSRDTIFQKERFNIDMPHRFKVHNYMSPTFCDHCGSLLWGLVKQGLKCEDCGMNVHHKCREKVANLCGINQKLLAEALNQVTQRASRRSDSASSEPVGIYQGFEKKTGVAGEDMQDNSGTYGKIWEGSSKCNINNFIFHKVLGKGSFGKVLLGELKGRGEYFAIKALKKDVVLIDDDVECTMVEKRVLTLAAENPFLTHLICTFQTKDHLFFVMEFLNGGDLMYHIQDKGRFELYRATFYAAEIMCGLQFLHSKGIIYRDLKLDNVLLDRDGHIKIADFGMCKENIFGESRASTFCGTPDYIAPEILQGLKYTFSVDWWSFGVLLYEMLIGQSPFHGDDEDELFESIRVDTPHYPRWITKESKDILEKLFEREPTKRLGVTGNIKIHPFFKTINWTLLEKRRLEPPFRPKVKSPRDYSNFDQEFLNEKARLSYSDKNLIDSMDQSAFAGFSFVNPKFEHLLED

Turning to `Cc1ncc(F)c(Nc2n[nH]c3c2CN(C(=O)N2C[C@@H](C)N(CC4CCOCC4)C[C@@H]2C)C3(C)C)n1` [Compound 1, 5-{[(2S,5R)-2,5-dimethyl-4-(tetrahydro-2H-pyran-4-ylmethyl)piperazin-1-yl]carbonyl}-N-(5-fluoro-2-methylpyrimidin-4-yl)-6,6-dimethyl-1,4,5,6-tetrahydropyrrolo[3,4-c]pyrazol-3-amine], the “Inhibition of PKC delta (in words)” value at Human PKC delta was “does not significantly inhibit”. For the same compound, the IC50 with pSHP2 (PKCβ cell assay) was determined as 9.8 nM; in the test with Interleukin-8 release, 39 nM.

For the origin of these results see US12415807B2, “PKC inhibitor solid state forms” (MingSight Pharmaceuticals, Inc., priority 2017, dated 2025).
